The nature of data set [1]: In vitro hemolytic potential with dog erythrocytes, phosphate buffer vehicle (Example 1). It is filed as cell-based. As to conditions: dog, whole blood, n=5 (mean), percentage of that induced by saponin. The procedure:
(§1) The following study was performed to evaluate the hemolytic potential of solutions of (2R)-2-[4-(7-bromo-2-quinolyloxy)phenoxy]propanoic acid in a 0.1 M pH 8 phosphate bufferred vehicle at concentrations of 10 mg/mL and 20 mg/mL. Saline (0.9% NaCl) was used as a negative control, and saponin (3% aqueous solution), which is a known inducer of hemolysis, was used as the positive control.
(§2) Dog whole blood was mixed in a 1:1 ratio and a 9:1 ratio with solutions of the active ingredient in the vehicle and with the vehicles alone. Dog whole blood was also mixed in a 1:1 ratio and a 9:1 ratio with a 3% saponin solution as the positive control and saline (0.9% NaCl) as the negative control.
(§3) After mixing, tubes were incubated for 30 minutes at 37°C, then centrifuged (3000 t/min.) for 10 minutes. Hemoglobin concentrate was dosed in the supernatant by spectrophotometry UV/visible (Genesis technologies) for the assessment of the in vitro hemolytic potential. The percent of hemolysis was calculated based on the results of the saponin samples.

Data set [2] deals with dog erythrocytes. Described as above. It is filed as cell-based. The conditions noted are these: 10 and 20 mg/mL solutions in 0.1 M pH 8 phosphate buffer. On the procedure: as §1, §2, §3
Data set [3] in a line: In vivo study in dogs with phosphate buffer formulation, 30-minute infusion (Example 6). The conditions noted are these: 0.1M phosphate buffer, single IV infusion over 30 minutes, 1 male and 1 female. The arrangement: species or system beagle dog. On the procedure: Dosages were 25 and 50 mg/kg. Sampling for plasma level determination was taken for 1 day at the following intervals: end of infusion (0), 30 minutes, 1 hour, 3 hours, 6 hours, and 24 hours after the end of the infusion.

Data set [4] is described as follows: Preliminary animal toxicological studies, infusion of simple phosphate buffer formulation. It counts as in vivo. The conditions noted are these: infused at 10 mg/mL or greater as a simple phosphate buffer formulation. The source says: (2R)-2-[4-(7-Bromo-2-quinolyloxy)phenoxy]propanoic acid may be administered as a liquid parenteral formulation. […] Since significant hemolysis can cause anemia, the hemolytic effect of (2R)-2-[4-(7-bromo-2-quinolyloxy)phenoxy]propanoic acid is an undesirable property for a pharmaceutical composition.

A short description of data set [5]: In vivo study in rats with phosphate buffer formulation, 1-hour infusion (Example 7). As to conditions: 400 mg/kg dose, 0.1M phosphate buffer, single IV infusion over 1 hour, day of the infusion. On the procedure: Dosages were 0 (control), 100, 200, and 400 mg/kg.
The subject of data set [6] is dog erythrocytes. Briefly: In vitro hemolytic potential in dog erythrocytes for a formulation containing a cyclodextrin (Example 4). As to conditions: 10 mg/mL Active Ingredient in 0.05M pH 7 phosphate buffer with 10% (w/v) hydroxypropyl beta cyclodextrin, n=6 (mean), percentage of that induced by saponin, 30 min. It counts as cell-based. The procedure: Saline (0.9% NaCl) was used as the negative control, and saponin (3% aqueous solution) was used as the positive control.
as §2, §3

Each structure is given as a SMILES string.

As to `C[C@@H](Oc1ccc(Oc2ccc3ccc(Br)cc3n2)cc1)C(=O)O` [Active Ingredient, (2R)-2-[4-(7-bromo-2-quinolyloxy)phenoxy]propanoic acid], the hemolysis at 0.5 h in data set [1] (pH 8, 10 mg/mL Active Ingredient in 0.1 M pH 8 phosphate buffer, Blood/Solution ratio 1:1) turned out to be 24%; in data set [1] (pH 8, 10 mg/mL Active Ingredient in 0.1 M pH 8 phosphate buffer, Blood/Solution ratio 9:1), 4.5%; in data set [1] (pH 8, 20 mg/mL Active Ingredient in 0.1 M pH 8 phosphate buffer, Blood/Solution ratio 1:1), 28%; in data set [1] (pH 8, 20 mg/mL Active Ingredient in 0.1 M pH 8 phosphate buffer, Blood/Solution ratio 9:1) it was 6.6%. Further, in data set [2], the “hemolysis of dog erythrocytes (result in words)” value was “induced hemolysis”. The “visual hemolysis on plasma samples” value in data set [3] (25 mg/kg, seen at time 0 and 30 minutes post infusion (all animals), 1 hour (male)) is given as “visual hemolysis was observed”; in data set [3] (50 mg/kg, seen at time 0, 30 minutes, 1 hour, 3 hours (both animals) and 6 hours (female)) it was “visual hemolysis was observed”. Moreover, in data set [4], the hemolysis result is reported as “cause a degree of hemolysis”. The “discolored urine (red/brown), animals affected” value is 8 out of 10 in data set [5] (females) and 6 out of 10 in data set [5] (males). In addition, the “Percentage of Hemolysis” value in data set [6] (Blood/Solution ratio 1:1) turned out to be 1.8%; in data set [6] (Blood/Solution ratio 9:1), 0.5%.

Source of the values: patent EP1897542A1, “Aqueous formulation comprising an antitumor agent” (Sanofi-Aventis, priority 2006, dated 2008).
